According to patent publication US20220241413A1, “COMBINATION THERAPIES USING CD-38 ANTIBODIES” (Takeda Pharmaceutical Company Limited, priority 2019, published 2022):

Test system: relapsed and refractory multiple myeloma (RRMM)
Assay: AB79-1501 study, AB79 monotherapy SC in RRMM: disease response
Format: in vivo, human
Settings: at the RP2D, anti-CD38 naïve patients who received at least cycle 1
Text: The AB79-1501 study is a Phase 1b/2a multicenter, open-label, dose-escalation, single-arm study in patients with relapsed and refractory multiple myeloma (RRMM), who were previously treated with at least a proteasome inhibitor (PI), an immunomodulatory drug (IMiD), an alkylating agent, and a steroid. Patients eligible for study enrollment are refractory or intolerant to at least one PI and at least one IMiD, and have received either ≥3 prior therapies or ≥2 prior therapies, if one of those therapies included a combination of a PI and an IMiD. In the phase 1b dose-escalation part of the study, patients who were previously exposed to an anti-CD38 agent are eligible; however, this criterion is not required. In the phase 2a expansion part of the study, patients were also refractory to at least one anti-CD38 monoclonal therapy at any time during prior treatment. The study was designed to evaluate the safety and tolerability of subcutaneously administered AB79 monotherapy in patients with RRMM, to determine the recommended phase 2 dose (RP2D), and to provide a preliminary assessment of its single-agent activity against RRMM, including in patients who are refractory to daratumumab. Parameters such as safety, tolerability, pharmacokinetics (PK), pharmacodynamics, and disease response were assessed.
As of the data cutoff, nineteen (19) patients were treated in the dose-escalation portion of the ongoing study in patients with RRMM and have completed at least 1 cycle: 4 patients in the first cohort (45 mg); 3 patients in the second cohort (135 mg); 6 patients in the third cohort (300 mg); and 6 patients in the fourth cohort (600 mg). The most common TEAEs (in ≥10% of patients) regardless of causality in the total population as of this date are fatigue and upper respiratory infection (27% each), insomnia (22%), diarrhea and nausea (17% each), headache and anemia (15% each), neutropenia, abdominal distension, back pain, and hypertension (12% each), cough and pneumonia (10% each). […] The RP2D was determined to be 600 mg with AB79 monotherapy. […]

For “AB79: anti-CD38 monoclonal IgG1 antibody; heavy chain SEQ ID NO:11, light chain SEQ ID NO:12”, the “clinical benefit rate (minor response or better)” value was 73%, the “disease control rate (stable disease or better)” value was 91% and the “preliminary objective response rate (ORR)” value was 36%.
